PMC10364322, “Evaluation of chronic drug-induced electrophysiological and cytotoxic effects using human-induced pluripotent stem cell-derived cardiomyocytes (hiPSC-CMs)” (Frontiers in Pharmacology, 2023)
Where two headings read alike, the source gives them in different places.

Tests used:
[1] = free therapeutic Cmax in humans; ref FDA-approved drug packages, PharmaPendium; cited from earlier work
[2] = system: hiPSC-CMs (iCell-Cardiomyocytes^2); assay: MEA impedance (cytotoxicity readout) in hiPSC-CMs
[3] = system: hiPSC-CMs (iCell-Cardiomyocytes^2); assay: ApoLive-Glo Multiplex Assay: viability (live cells); type: cell-based, human
Method: (§1) iCell-Cardiomyocytes^2 (Fujifilm Cellular Dynamics Inc., Madison, WI, United States) were seeded into 96 well-plates (Greiner Bio One, ref. 655946) according to the manufacturer instructions, at a density of 50 k cells/well. […] To assess effects on viability and cytotoxicity, two assay combination kits were used: 1) RealTime-Glo™ Annexin V Apoptosis and Necrosis Assay [Promega, JA1011 ([Kupcho et al., 2019])] and 2) ApoLive-Glo Multiplex Assay [Promega, G6410 ([Flörkemeier et al., 2022])]. The assays were performed according to manufacturer instructions. The experiments were repeated at 24, 48, and 72 h in order to assess any time-dependent change in live cells or activation of cell-death pathways.
(§2) The nonparametric Wilcoxon-Mann Whitney Test was used to compare the percent change from the baseline (Δ%) value between the group treated with the compound at a given concentration and the group treated with the DMSO at each matching time points. A two-sided test at 5% significance level was considered. […] To assess the physiological relevance of changes, a tolerance interval of DMSO experiments was calculated at each time point, for each parameter. Specifically, the Δ% values of all (pooled) DMSO wells (N = 81) were used to obtain the non-parametric 80%–95% (p = 0.80 & 1-α = 0.95) tolerance interval (TI). TIs indicate an interval where, with a certain confidence level (1- α = 0.95), a specified proportion (p = 0.80) of percent change for DMSO data falls. The lower and upper limits based on the TI values were used as cut-offs for the interpretation of the changes. For the cytotoxicity assays, measurements of fluorescence (after background fluorescence subtraction) from wells treated with the compounds were normalized by the average value of vehicle experiments (DMSO 0.1%) to obtain a DMSO-corrected, delta/delta percent change. Experiments from each condition, as delta/delta percent, were averaged and expressed as mean ± SD. Statistical analysis was performed using a non-parametric test (Kruskal-Wallis) and each treatment condition was compared to the relative DMSO 0.1%. Differences were considered statistically significant when the p-value was smaller than 0.05.

[4] = system: caspases 3,7 in hiPSC-CMs; assay: ApoLive-Glo Multiplex Assay: apoptosis, caspases 3,7 activation; type: cell-based, human
Method: as §1, §2

[5] = system: hiPSC-CMs (iCell-Cardiomyocytes^2); assay: RealTime-Glo Annexin V Apoptosis and Necrosis Assay: necrosis; type: cell-based, human
Method: as §1, §2

[6] = system: Annexin V activation in hiPSC-CMs; type: cell-based; details: for Annexin V (apoptosis activation), Mean±SD: 0.3 µM
Method: The assays were performed according to manufacturer instructions.
as §2, with “Specifically, the Δ% values of all (pooled) DMSO wells (N = 81) were used to obtain the non-parametric 80%–95% (p = 0.80 & 1-α = 0.95) tolerance interval (TI).” left out

## COc1cccc2c1C(=O)c1c(O)c3c(c(O)c1C2=O)C[C@@](O)(C(=O)CO)C[C@@H]3O[C@H]1C[C@H](N)[C@H](O)[C@H](C)O1 [Doxorubicin]
[1]
  Free Cmax: 7.4 µM
[2]; 0.1 µM, 2h
  Imp (impedance), % change from baseline: 3±5%
[2]; 0.1 µM, 24h
  Imp (impedance), % change from baseline: -8±5%
[2]; 0.1 µM, 48h
  Imp (impedance), % change from baseline: -20±4%
[2]; 0.1 µM, 72h
  Imp (impedance), % change from baseline: -27±4%
[2]; 0.1 µM, 96h
  Imp (impedance), % change from baseline: -30±8%
[2]; 0.3 µM, 2h
  Imp (impedance), % change from baseline: -1±1%
[2]; 0.3 µM, 24h
  Imp (impedance), % change from baseline: -23±6 %
[2]; 0.3 µM, 48h
  Imp (impedance), % change from baseline: -47±6 %
[2]; 0.3 µM, 72h
  Imp (impedance), % change from baseline: -70±7 %
  decrease in the impedance signal: ~70%
[2]; 0.3 µM, 96h
  Imp (impedance), % change from baseline: -81±7 %
[2]; 1 µM, 2h
  Imp (impedance), % change from baseline: -1±2%
[2]; 1 µM, 24h
  Imp (impedance), % change from baseline: -56±4 %
[2]; 1 µM, 48h
  Imp (impedance), % change from baseline: -86±1 %
[2]; 1 µM, 72h
  Imp (impedance), % change from baseline: -89±2 %
[2]; 1 µM, 96h
  Imp (impedance), % change from baseline: -89±2 %
[2]; 3 µM, 72h
  Imp (impedance), % change from baseline: -87±0 %
[2]; 3 µM, 96h
  Imp (impedance), % change from baseline: -88±1 %
[2]; 3 µM, 2h
  Imp (impedance), % change from baseline: -2±0%
[2]; 3 µM, 24h
  Imp (impedance), % change from baseline: -56±5 %
[2]; 3 µM, 48h
  Imp (impedance), % change from baseline: -85±2 %
[3]; 0.3 µM, 24h
  Live Cells (viability), Mean±SD: -7.1±16.9 Δ/Δ%
[3]; 0.3 µM, 48h
  Live Cells (viability), Mean±SD: -9±11.9 Δ/Δ%
[3]; 0.3 µM, 72h
  drop in live cells assay: ~40%
[3]; 1 µM, 24h
  Live Cells (viability), Mean±SD: -10.5±16.2 Δ/Δ%
[3]; 10 µM, 24, 48, 72 h
  number of live cells: strong impact on the number of live cells, further decreasing over time
[4]; 0.3 µM, 24h
  Caspases 3, 7 (apoptosis activation), Mean±SD: 0.6±15.9 Δ/Δ%
[4]; 0.3 µM, 48h
  Caspases 3, 7 (apoptosis activation), Mean±SD: 109.5±125.1 Δ/Δ%
[4]; 10 µM, 72h
  Caspases 3, 7 (apoptosis activation), Mean±SD: 113±14.3 Δ/Δ%
[4]; 24, 48, 72 h
  activation of caspases 3,7 (apoptosis): induced the largest activation of caspases 3,7
[5]; 0.3 µM, 24h
  Necrosis, Mean±SD: 9.8±45.2 Δ/Δ%
[5]; 0.3 µM, 48h
  Necrosis, Mean±SD: 40.2±103.1 Δ/Δ%
[5]; 1 µM, 24h
  Necrosis, Mean±SD: 9.8±27 Δ/Δ%
[5]; 1 µM, 48h
  Necrosis, Mean±SD: 72.9±120.4 Δ/Δ%
[5]; over time, especially at 72 h
  activation of necrosis: also showed the activation of necrosis
[6]; 24h
  Annexin V (apoptosis activation), Mean±SD: 24.6±24 Δ/Δ%
[6]; 48h
  Annexin V (apoptosis activation), Mean±SD: 31.2±28.5 Δ/Δ%
[6]; 24, 48, 72 h
  activation of Annexin V (apoptosis): largest activation of caspases 3,7, and of Annexin V
